According to publication PMC8222254, “Self-assembly of an anion receptor with metal-dependent kinase inhibition and potent in vitro anti-cancer properties” (Nature Communications, 2021):
Several values for one entry are separate records, joined by “and”; a condition that tells them apart may be missing. Identical values can stand only once. Like-named read-outs stand apart in the source and are kept apart here.

Tests used:
Experiment in all cases: Chemosensitivity, 96 h continuous exposure, MTT assay
Assay type in all cases: cell-based, human
BxPC3 = settings: for IC50 / Selectivity indices relative to ARPE-19, Ratio + anion:no anion / Selectivity indices relative to MCF10A, Ratio + anion:no anion: BXPC3; for Selectivity index (ARPE19): IC50 ARPE-19 / IC50 BXPC3; for Selectivity index (MCF10A): IC50 MCF10A / IC50 BXPC3; for Relative potency (+ anion to no anion), Ratio + anion:no anion: ratio of IC50, BXPC3; for Selectivity indices relative to ARPE-19, Ratio + anion:no anion: ratio of SI (ARPE-19); for Selectivity indices relative to MCF10A, Ratio + anion:no anion: ratio of SI (MCF 10A)
Procedure, shortened: (§1)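 Cells seeded at 2 × 10^3/well (GBM1 3 × 10^3/well) and left overnight at 37 °C, then exposed continuously for 96 h to a range of compound concentrations (final DMSO 0.2%). Viability read by MTT, absorbance at 540 nm; IC50 taken from dose-response curves as concentration reducing cell growth by 50%.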

HCT116 p53+/+ = settings: for IC50 / Selectivity indices relative to ARPE-19, Ratio + anion:no anion / Selectivity indices relative to MCF10A, Ratio + anion:no anion: HCT116 p53+/+; for Selectivity index (ARPE19): IC50 ARPE-19 / IC50 HCT116 p53+/+; for Selectivity index (MCF10A): IC50 MCF10A / IC50 HCT116 p53+/+; for Relative potency (+ anion to no anion), Ratio + anion:no anion: ratio of IC50, HCT116 p53+/+; for Selectivity indices relative to ARPE-19, Ratio + anion:no anion: ratio of SI (ARPE-19); for Selectivity indices relative to MCF10A, Ratio + anion:no anion: ratio of SI (MCF 10A)
Procedure, shortened: as §1

ARPE-19 non-cancer cells = settings: for Relative potency (+ anion to no anion), Ratio + anion:no anion: ratio of IC50, ARPE-19
Procedure, shortened: as §1

A549 = settings: for IC50 / Selectivity indices relative to ARPE-19, Ratio + anion:no anion / Selectivity indices relative to MCF10A, Ratio + anion:no anion: A549; for Selectivity index (ARPE19): IC50 ARPE-19 / IC50 A549; for Selectivity index (MCF10A): IC50 MCF10A / IC50 A549; for Relative potency (+ anion to no anion), Ratio + anion:no anion: ratio of IC50, A549; for Selectivity indices relative to ARPE-19, Ratio + anion:no anion: ratio of SI (ARPE-19); for Selectivity indices relative to MCF10A, Ratio + anion:no anion: ratio of SI (MCF 10A)
Procedure, shortened: as §1

MiaPaCa2 = settings: for Selectivity index (ARPE19): IC50 ARPE-19 / IC50 MiaPaCa2; for Selectivity index (MCF10A): IC50 MCF10A / IC50 MiaPaCa2; for IC50 / Selectivity indices relative to ARPE-19, Ratio + anion:no anion / Selectivity indices relative to MCF10A, Ratio + anion:no anion: MiaPaCa2; for Relative potency (+ anion to no anion), Ratio + anion:no anion: ratio of IC50, MiaPaCa2; for Selectivity indices relative to ARPE-19, Ratio + anion:no anion: ratio of SI (ARPE-19); for Selectivity indices relative to MCF10A, Ratio + anion:no anion: ratio of SI (MCF 10A)
Procedure, shortened: as §1

MCF10A non-cancer cells = settings: for Relative potency (+ anion to no anion), Ratio + anion:no anion: ratio of IC50, MCF10A
Procedure, shortened: as §1

DLD-1 = settings: for IC50 / Selectivity indices relative to ARPE-19, Ratio + anion:no anion / Selectivity indices relative to MCF10A, Ratio + anion:no anion: DLD-1; for Selectivity index (ARPE19): IC50 ARPE-19 / IC50 DLD-1; for Selectivity index (MCF10A): IC50 MCF10A / IC50 DLD-1; for Relative potency (+ anion to no anion), Ratio + anion:no anion: ratio of IC50, DLD-1; for Selectivity indices relative to ARPE-19, Ratio + anion:no anion: ratio of SI (ARPE-19); for Selectivity indices relative to MCF10A, Ratio + anion:no anion: ratio of SI (MCF 10A)
Procedure, shortened: as §1

[1] = mean of replicates, read-out: Mean IC50
[2] = single replicate, read-out: IC50 values for each replicate
[3] = ARPE-19, mean of replicates, read-out: Mean IC50
[4] = ARPE-19, single replicate, read-out: IC50 values for each replicate
[5] = ARPE-19 non-cancer, read-out: Mean IC50 values
[6] = MCF10A non-cancer, read-out: Mean IC50 values
[7] = MCF10A, mean of replicates, read-out: Mean IC50
[8] = MCF10A, single replicate, read-out: IC50 values for each replicate

## CC(=O)[O-].CC(=O)[O-].CC(=O)[O-].O=P([O-])([O-])[O-].[Zn+2].[Zn+2].[Zn+2].c1ccc(-c2csc(NCCN(CCNc3nc(-c4ccccn4)cs3)CCNc3nc(-c4ccccn4)cs3)n2)nc1.c1ccc(-c2csc(NCCN(CCNc3nc(-c4ccccn4)cs3)CCNc3nc(-c4ccccn4)cs3)n2)nc1 [[L2Zn3(PO4)]3+]
BxPC3; [1]
  IC50: 728 nM
BxPC3; read-out: Mean IC50 values
  IC50: 728 nM
BxPC3; [2]
  IC50: 812 nM and 698 nM and 618 nM and 766 nM
BxPC3
  Selectivity index (ARPE19): 179.90
  Selectivity index (MCF10A): 19.81
  Relative potency (+ anion to no anion), Ratio + anion:no anion: 2.28
  Selectivity indices relative to ARPE-19, Ratio + anion:no anion: 0.366
  Selectivity indices relative to MCF10A, Ratio + anion:no anion: 0.039
HCT116 p53+/+; [1]
  IC50: 218 nM
HCT116 p53+/+; read-out: Mean IC50 values
  IC50: 218 nM
HCT116 p53+/+; [2]
  IC50: 218 nM and 227 nM and 209 nM
HCT116 p53+/+
  Selectivity index (ARPE19): 600.78
  Selectivity index (MCF10A): 66.16
  Relative potency (+ anion to no anion), Ratio + anion:no anion: 0.47
  Selectivity indices relative to ARPE-19, Ratio + anion:no anion: 1.780
  Selectivity indices relative to MCF10A, Ratio + anion:no anion: 0.191
ARPE-19 non-cancer cells; [3]
  IC50: 131 µM
ARPE-19 non-cancer cells; [4]
  IC50: 121 µM and 118 µM and 154 µM
ARPE-19 non-cancer cells; [5]
  IC50: 131 µM
ARPE-19 non-cancer cells
  Relative potency (+ anion to no anion), Ratio + anion:no anion: 0.83
A549; [1]
  IC50: 501 nM
A549; read-out: Mean IC50 values
  IC50: 501 nM
A549; [2]
  IC50: 234 nM and 734 nM and 617 nM and 417 nM
A549
  Selectivity index (ARPE19): 261.42
  Selectivity index (MCF10A): 28.79
  Relative potency (+ anion to no anion), Ratio + anion:no anion: 1.24
  Selectivity indices relative to ARPE-19, Ratio + anion:no anion: 0.670
  Selectivity indices relative to MCF10A, Ratio + anion:no anion: 0.072
MiaPaCa2
  Selectivity index (ARPE19): 2.94
  Selectivity index (MCF10A): 0.32
  Relative potency (+ anion to no anion), Ratio + anion:no anion: 0.75
  Selectivity indices relative to ARPE-19, Ratio + anion:no anion: 1.106
  Selectivity indices relative to MCF10A, Ratio + anion:no anion: 0.118
MiaPaCa2; [1]
  IC50: 44.5 µM
MiaPaCa2; read-out: Mean IC50 values
  IC50: 44.5 µM
MiaPaCa2; [2]
  IC50: 52.4 µM and 49.8 µM and 47.6 µM and 22 µM and 50.8 µM
MCF10A non-cancer cells; [6]
  IC50: 14.4 µM
MCF10A non-cancer cells; [7]
  IC50: 14.4 µM
MCF10A non-cancer cells; [8]
  IC50: 11.9 µM and 15 µM and 16.3 µM
MCF10A non-cancer cells
  Relative potency (+ anion to no anion), Ratio + anion:no anion: 0.09
DLD-1; [1]
  IC50: 190 nM
DLD-1; read-out: Mean IC50 values
  IC50: 190 nM
DLD-1; [2]
  IC50: 203 nM and 90 nM and 180 nM and 219 nM and 259 nM
DLD-1
  Selectivity index (ARPE19): 689.32
  Selectivity index (MCF10A): 75.91
  Relative potency (+ anion to no anion), Ratio + anion:no anion: 1.12
  Selectivity indices relative to ARPE-19, Ratio + anion:no anion: 0.745
  Selectivity indices relative to MCF10A, Ratio + anion:no anion: 0.080

## O=S(=O)(O)O.[Zn+2].[Zn+2].[Zn+2].c1ccc(-c2csc(NCCN(CCNc3nc(-c4ccccn4)cs3)CCNc3nc(-c4ccccn4)cs3)n2)nc1.c1ccc(-c2csc(NCCN(CCNc3nc(-c4ccccn4)cs3)CCNc3nc(-c4ccccn4)cs3)n2)nc1 [[L2Zn3(SO4)]4+]
BxPC3; [1]
  IC50: 599 nM
BxPC3; read-out: Mean IC50 values
  IC50: 599 nM
BxPC3; [2]
  IC50: 668 nM and 428 nM and 705 nM and 728 nM and 465 nM
BxPC3
  Selectivity index (ARPE19): 282.59
  Selectivity index (MCF10A): 25.42
  Relative potency (+ anion to no anion), Ratio + anion:no anion: 1.87
  Selectivity indices relative to ARPE-19, Ratio + anion:no anion: 0.575
  Selectivity indices relative to MCF10A, Ratio + anion:no anion: 0.050
HCT116 p53+/+; [1]
  IC50: 66 nM
HCT116 p53+/+; read-out: Mean IC50 values
  IC50: 66 nM
HCT116 p53+/+; [2]
  IC50: 63 nM and 74 nM and 62 nM
HCT116 p53+/+
  Selectivity index (ARPE19): 2564.70
  Selectivity index (MCF10A): 230.73
  Relative potency (+ anion to no anion), Ratio + anion:no anion: 0.14
  Selectivity indices relative to ARPE-19, Ratio + anion:no anion: 7.600
  Selectivity indices relative to MCF10A, Ratio + anion:no anion: 0.665
ARPE-19 non-cancer cells; [3]
  IC50: 169 µM
ARPE-19 non-cancer cells; [4]
  IC50: 182 µM and 150 µM and 176 µM
ARPE-19 non-cancer cells; [5]
  IC50: 169 µM
ARPE-19 non-cancer cells
  Relative potency (+ anion to no anion), Ratio + anion:no anion: 1.08
A549; [1]
  IC50: 582 nM
A549; read-out: Mean IC50 values
  IC50: 582 nM
A549; [2]
  IC50: 263 nM and 588 nM and 773 nM and 704 nM
A549
  Selectivity index (ARPE19): 290.84
  Selectivity index (MCF10A): 26.16
  Relative potency (+ anion to no anion), Ratio + anion:no anion: 1.44
  Selectivity indices relative to ARPE-19, Ratio + anion:no anion: 0.745
  Selectivity indices relative to MCF10A, Ratio + anion:no anion: 0.065
MiaPaCa2
  Selectivity index (ARPE19): 3.29
  Selectivity index (MCF10A): 0.30
  Relative potency (+ anion to no anion), Ratio + anion:no anion: 0.87
  Selectivity indices relative to ARPE-19, Ratio + anion:no anion: 1.236
  Selectivity indices relative to MCF10A, Ratio + anion:no anion: 0.108
MiaPaCa2; [1]
  IC50: 51.5 µM
MiaPaCa2; read-out: Mean IC50 values
  IC50: 51.5 µM
MiaPaCa2; [2]
  IC50: 52.6 µM and 36.7 µM and 60.8 µM and 55.8 µM
MCF10A non-cancer cells; [6]
  IC50: 15.2 µM
MCF10A non-cancer cells; [7]
  IC50: 15.2 µM
MCF10A non-cancer cells; [8]
  IC50: 18.5 µM and 11.3 µM (2×) and 19.7 µM
MCF10A non-cancer cells
  Relative potency (+ anion to no anion), Ratio + anion:no anion: 0.09
DLD-1; [1]
  IC50: 338 nM
DLD-1; read-out: Mean IC50 values
  IC50: 338 nM
DLD-1
  Selectivity index (ARPE19): 500.80
  Selectivity index (MCF10A): 45.05
  Relative potency (+ anion to no anion), Ratio + anion:no anion: 1.99
  Selectivity indices relative to ARPE-19, Ratio + anion:no anion: 0.541
  Selectivity indices relative to MCF10A, Ratio + anion:no anion: 0.047
